Where a name gives a salt, the structure may show the parent alone. Read-outs that look alike come from different tables or passages of the source.
Experiments:
[1] = test system: SD female rats; test: Effect on the increase in intravesical pressure induced by electrical stimulation of the pelvic nerve in anesthetized rats; type: in vivo, rat; details: for change in vivo at 0.3 mg/kg: Rattus norvegicus, iv, 1 h, read-out: Percentage Change (%) Rc of AUC of increase of intravesical pressure (maximum during 1 hour after administration)
Procedure: For evaluation of in vivo effect on neurogenic bladder contraction, effects of the test compounds on the increase in intravesical pressure induced by electrical stimulation of the pelvic nerve in rats were determined according to the following method.
SD female rats (Japan SLC, Inc.) were anesthetized by subcutaneous administration of 1200 mg/kg of urethane (Wako Pure Chemical Corporation), and the lower abdomens of the rats were incised in the midline. After the ureters were ligated and cut at locations proximal to the bladder, a cannula (PE-60, BECTON DICKINSON) for cystometry was inserted into the bladder through the external urethral orifice and fixed with sutures. After injecting saline (about 200 μL) via the cannula inserted into the bladder, the other end of the cannula was connected to a pressure transducer to measure intravesical pressure.
The pelvic nerve near the urinary bladder of the rat was gently separated and dissected under stereomicroscope observation and attached to an electrode for nerve stimulation (K2-14015M-PT, BrainScience idea. Co., Ltd.). The peritoneal cavity of the rat was filled with liquid paraffin (26114-75, NACALAI TESQUE, INC.). After the postoperative rest period, an electrical stimulator (SEN-7203, NIHON KOHDEN CORPORATION) was used to stimulate the pelvic nerve to induce increase in intravesical pressure. The stimulation frequency was 8 Hz, the pulse width was 0.3 ms, and the stimulation time was 10 seconds. The voltage of the electrical stimulator was adjusted so that the increase in intravesical pressure was about 50-70% of that at stimulation with 10 V.
The electric stimulation was repeated with an interval of 10 minutes. After the increase of intravesical pressure induced by electric stimulation was stabilized three times or more, a test compound (dosage 0.3 mg/kg), distigmine bromide (dosage 0.03, 0.1 mg/kg) or a vehicle was intravenously administered at 1.0 mL/kg via the catheter placed into femoral vein. The effect of the test compound on increase of intravesical pressure was measured for 1 hour. Saline was used as a vehicle, and the test compound was dissolved in dimethyl sulfoxide before adding to the vehicle. The final concentration of dimethyl sulfoxide was 10%.
The response data (intravesical pressure) were recorded on a personal computer via data collection and analysis system (PowerLab®, ADInstruments) and analyzed using analysis software (LabChart®, ADInstruments). For each electric stimulation, AUC of increase of intravesical pressure (area under the curve of transition of intravesical pressure) was calculated, and percentage change Rc (unit: %) compared to the value (AUC) before the administration of the test compound was calculated according to the following equation (2). In the equation (2), Ab is AUC before administering a test compound, and Aa is AUC after administering a test compound. In addition, the maximum effect observed during 1 hour after administering the test compound (maximum percentage change Rc) was defined as the effect of the test compound. The higher percentage change Rc, the higher effect on enhancement of bladder contraction force and increase of intravesical pressure. Rc=100×(Aa−Ab)/Ab (2)

[2] = test system: SD female rats; test: as above; type: in vivo, rat; details: intravenous, 0.1 mg/kg
[3] = anesthetized SD female rats, pelvic nerve electrical stimulation, test compound 0.3 mg/kg intravenously

Work on `CCOCC1(CN(C)c2cc(-c3cnc(C4CC4)c(C(F)(F)F)c3)nc3nc(-c4cnc(N5CCC(C(=O)O)CC5)cn4)[nH]c23)CCCC1` [Example 3, 1-(5-{5-[6-Cyclopropyl-5-(trifluoromethyl)pyridin-3-yl]-7-[{[1-(ethoxymethyl)cyclopentyl]methyl}(methyl)amino]-1H-imidazo[4,5-b]pyridin-2-yl}pyrazin-2-yl)piperidine-4-carboxylic acid] yielded a change in vivo at 0.3 mg/kg [1, 3] of 311%.
`CCOc1ncc(-c2cc(N(C)CC3(COC)CCC3)c3[nH]c(-c4cnc(N5CCC(C(=O)O)CC5)cn4)nc3n2)cc1C(F)(F)F` [Example 42] showed a change in vivo at 0.3 mg/kg [1, 3] of 119%.
Compound `COCC1(CN(C)c2cc(-c3cnc(C4CC4)c(C(F)(F)F)c3)nc3nc(-c4cnc(N5CCN(CCC(=O)O)C[C@H]5C)cn4)[nH]c23)CCCCC1` [Example 7, 3-[(3R)-4-(5-{5-[6-Cyclopropyl-5-(trifluoromethyl)pyridin-3-yl]-7-[{[1-(methoxymethyl)cyclohexyl]methyl}(methyl)amino]-1H-imidazo[4,5-b]pyridin-2-yl}pyrazin-2-yl)-3-methylpiperazin-1-yl]propanoic acid] has a change in vivo at 0.3 mg/kg [1, 3] of 608%.
Compound `COCC1(CN(C)c2cc(-c3cc(F)cc(C(F)(F)F)c3)nc3nc(-c4cnc(N5CCN(CC(=O)O)CC5)cn4)[nH]c23)CCC1` [Example 37] has a change in vivo at 0.3 mg/kg [1, 3] of 91.2%.
`COCC1(CN(C)c2cc(-c3cnc(C4CC4)c(C(F)(F)F)c3)nc3nc(-c4cnc(N5CCN(CCC(=O)O)C[C@H]5C)cn4)[nH]c23)CCCC1` [Example 20, Sodium 3-[(3R)-4-(5-{5-[6-Cyclopropyl-5-(trifluoromethyl)pyridin-3-yl]-7-[{[1-(methoxymethyl)cyclopentyl]methyl}(methyl)amino]-1H-imidazo[4,5-b]pyridin-2-yl}pyrazin-2-yl)-3-methylpiperazin-1-yl]propanoate] showed a change in vivo at 0.3 mg/kg [1, 3] of 249%.
For `COCC1(CN(C)c2cc(-c3cc(C4CC4)nc(C(F)(F)F)c3)nc3nc(-c4cnc(N5CCC(OCC(=O)O)CC5)cn4)[nH]c23)CCCC1` [Example 4, {[1-(5-{5-[2-Cyclopropyl-6-(trifluoromethyl)pyridin-4-yl]-7-[{[1-(methoxymethyl)cyclopentyl]methyl}(methyl)amino]-1H-imidazo[4,5-b]pyridin-2-yl}pyrazin-2-yl)piperidin-4-yl]oxy}acetic acid], the change in vivo at 0.3 mg/kg [1, 3] was 123%.
With `COCC1(CN(C)c2cc(-c3cnc(C4CC4)c(C(F)(F)F)c3)nc3nc(-c4ccc(OC5CCN(CC(=O)O)CC5)cc4F)[nH]c23)CCCC1` [Example 10, [4-(4-{5-[6-Cyclopropyl-5-(trifluoromethyl)pyridin-3-yl]-7-[{[1-(methoxymethyl)cyclopentyl]methyl}(methyl)amino]-1H-imidazo[4,5-b]pyridin-2-yl}-3-fluorophenoxy)piperidin-1-yl]acetic acid] the change in vivo at 0.3 mg/kg [1, 3] was 82.6%.
Work on `COCC1(CN(C)c2cc(-c3cc(F)cc(C(F)(F)F)c3)nc3nc(-c4cnc(N5CCC(F)(C(=O)O)CC5)cn4)[nH]c23)CCC1` [Example 38] yielded a change in vivo at 0.3 mg/kg [1, 3] of 98.1%.
Compound `COC[C@@H]1CN(c2cnc(-c3nc4nc(-c5cnc(C6CC6)c(C(F)(F)F)c5)cc(N(C)CC5(COC)CCCCC5)c4[nH]3)cn2)CCN1CCC(=O)O` [Example 8, 3-[(2S)-4-(5-{5-[6-Cyclopropyl-5-(trifluoromethyl)pyridin-3-yl]-7-[{[1-(methoxymethyl)cyclohexyl]methyl}(methyl)amino]-1H-imidazo[4,5-b]pyridin-2-yl}pyrazin-2-yl)-2-(methoxymethyl)piperazin-1-yl]propanoic acid] has a change in vivo at 0.3 mg/kg [1, 3] of 374%.
Work on `CCOc1cc(-c2cc(N(C)CC3(COC)CCCC3)c3[nH]c(-c4cnc(N5CCC(C(=O)O)CC5)cn4)nc3n2)cc(C(F)(F)F)n1` [Example 2, 1-(5-{5-[2-Ethoxy-6-(trifluoromethyl)pyridin-4-yl]-7-[{[1-(methoxymethyl)cyclopentyl]methyl}(methyl)amino]-1H-imidazo[4,5-b]pyridin-2-yl}pyrazin-2-yl)piperidine-4-carboxylic acid] yielded a change in vivo at 0.3 mg/kg [1, 3] of 331%.
In the case of `COCC1(CN(C)c2cc(-c3cnc(C4CC4)c(C(F)(F)F)c3)nc3nc(-c4cnc(N5CCN(CCC(=O)O)CC5)cn4)[nH]c23)CCCCC1` [Example 6, 3-[4-(5-{5-[6-Cyclopropyl-5-(trifluoromethyl)pyridin-3-yl]-7-[{[1-(methoxymethyl)cyclohexyl]methyl}(methyl)amino]-1H-imidazo[4,5-b]pyridin-2-yl}pyrazin-2-yl)piperazin-1-yl]propanoic acid], the change in vivo at 0.3 mg/kg [1, 3] is reported as 571%.
For `CN(CCCCCCN(C)C(=O)Oc1ccc[n+](C)c1)C(=O)Oc1ccc[n+](C)c1` [distigmine bromide, reference compound], the “nicotinic side effect (fasciculation)” value [2] was “observed” and the “enhancement effect on bladder contractility” value ([1]; anesthetized rats, intravenous, test compound 0.3 mg/kg, distigmine bromide 0.03, 0.1 mg/kg, electrical stimulation of pelvic nerve) was “showed enhancement of bladder contractility”.
With `CCOc1cc(-c2cc(N(C)CC3(COC)CCC3)c3[nH]c(-c4cnc(N5CCC(C(=O)O)CC5)cn4)nc3n2)cc(C(F)(F)F)n1` [Example 11, 1-(5-{5-[2-Ethoxy-6-(trifluoromethyl)pyridin-4-yl]-7-[{[1-(methoxymethyl)cyclobutyl]methyl}(methyl)amino]-1H-imidazo[4,5-b]pyridin-2-yl}pyrazin-2-yl)piperidine-4-carboxylic acid dihydrochloride] the change in vivo at 0.3 mg/kg [1, 3] was 270%.
`CCOc1ncc(-c2cc(N(C)CC3(COC)CCCC3)c3[nH]c(-c4ccc(N5CCC(C(=O)O)CC5)cc4F)nc3n2)cc1C(F)(F)F` [Example 68] was tested, and the change in vivo at 0.3 mg/kg [1, 3] was 133%.
In the case of `CCOCC1(CN(C)c2cc(-c3cnc(C4CC4)c(C(F)(F)F)c3)nc3nc(-c4cnc(N5CCN(CCC(=O)O)C[C@H]5C)cn4)[nH]c23)CCCC1` [Example 14, Sodium 3-[(3R)-4-(5-{5-[6-cyclopropyl-5-(trifluoromethyl)pyridin-3-yl]-7-[{[1-(ethoxymethyl)cyclopentyl]methyl}(methyl)amino]-1H-imidazo[4,5-b]pyridin-2-yl}pyrazin-2-yl)-3-methylpiperazin-1-yl]propanoate], the change in vivo at 0.3 mg/kg [1, 3] is reported as 400%.
`COCC1(CN(C)c2cc(-c3cc(C4CC4)nc(C(F)(F)F)c3)nc3nc(-c4cnc(N5CCN(CCC(=O)O)C[C@H]5C)cn4)[nH]c23)CCCCC1` [Example 16, Sodium 3-[(3R)-4-(5-{5-[2-cyclopropyl-6-(trifluoromethyl)pyridin-4-yl]-7-[{[1-(methoxymethyl)cyclohexyl]methyl}(methyl)amino]-1H-imidazo[4,5-b]pyridin-2-yl}pyrazin-2-yl)-3-methylpiperazin-1-yl]propanoate] gave a change in vivo at 0.3 mg/kg [1, 3] of 182%.
Compound `CCOc1cc(-c2cc(N(C)CC(C)(C)COC)c3[nH]c(-c4cnc(N5CCC(C(=O)O)CC5)cn4)nc3n2)cc(C(F)(F)F)n1` [Example 1, 1-(5-{5-[2-Ethoxy-6-(trifluoromethyl)pyridin-4-yl]-7-[(3-methoxy-2,2-dimethylpropyl)(methyl)amino]-1H-imidazo[4,5-b]pyridin-2-yl}pyrazin-2-yl)piperidine-4-carboxylic acid] has a change in vivo at 0.3 mg/kg [1, 3] of 326%.
In the case of `CCOc1cc(-c2cc(N(C)CC3(COC)CCCC3)c3[nH]c(-c4cnc(N5[C@@H]6CC[C@H]5C[C@@H](OCC(=O)O)C6)cn4)nc3n2)cc(C(F)(F)F)n1` [Example 15, Sodium {[(1R,3r,5S)-8-(5-{5-[2-ethoxy-6-(trifluoromethyl)pyridin-4-yl]-7-[{[1-(methoxymethyl)cyclopentyl]methyl}(methyl)amino]-1H-imidazo[4,5-b]pyridin-2-yl}pyrazin-2-yl)-8-azabicyclo[3.2.1]octan-3-yl]oxy}acetate], the change in vivo at 0.3 mg/kg [1] is reported as 276%.
